Experimental data from ChEMBL document CHEMBL1201862, “PubChem BioAssay data set” (2004).
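In this assay, cells in 96-well plates receive the compound at five concentrations for 48 hours. Endpoints are linearly interpolated between the surrounding concentrations. GI50: concentration for 50% inhibition of growth.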 The source made the active and inactive calls. Rule as the data show it: active = GI50 up to about 1.1 µM and inactive = higher.

Columns and labels:
Assay in all cases: inhibition of tumour cell growth, NCI panel, 48 h
786-0 = tested on: 786-0
A498 = tested on: A498
A549 = tested on: A549
ACHN = tested on: ACHN
CAKI-1 = tested on: CAKI-1
CCRF-CEM = tested on: CCRF-CEM
COLO 205 = tested on: COLO 205
DMS-114 = tested on: DMS-114
DMS-273 = tested on: DMS-273
EKVX = tested on: EKVX
HCC 2998 = tested on: HCC 2998
HCT-116 = tested on: HCT-116
HCT-15 = tested on: HCT-15
HL-60 = tested on: HL-60
HOP-18 = tested on: HOP-18
HOP-62 = tested on: HOP-62
HT-29 = tested on: HT-29
IGROV-1 = tested on: IGROV-1
K562 = tested on: K562
KM-20L2 = tested on: KM-20L2
KM12 = tested on: KM12
LOX IMVI = tested on: LOX IMVI
LXFL 529 = tested on: LXFL 529
M14 = tested on: M14
M19-MEL = tested on: M19-MEL
MOLT-4 = tested on: MOLT-4
Malme-3M = tested on: Malme-3M
NCI-H226 = tested on: NCI-H226
NCI-H23 = tested on: NCI-H23
NCI-H460 = tested on: NCI-H460
NCI-H522 = tested on: NCI-H522
OVCAR-3 = tested on: OVCAR-3
OVCAR-4 = tested on: OVCAR-4
OVCAR-5 = tested on: OVCAR-5
OVCAR-8 = tested on: OVCAR-8
RXF 393 = tested on: RXF 393
RXF 631 = tested on: RXF 631
SF-268 = tested on: SF-268
SF-295 = tested on: SF-295
SF-539 = tested on: SF-539
SK-MEL-28 = tested on: SK-MEL-28
SK-MEL-2 = tested on: SK-MEL-2
SK-MEL-5 = tested on: SK-MEL-5
SK-OV-3 = tested on: SK-OV-3
SN12C = tested on: SN12C
SNB-19 = tested on: SNB-19
SNB-75 = tested on: SNB-75
SNB-78 = tested on: SNB-78
SR = tested on: SR
SW-620 = tested on: SW-620
TK-10 = tested on: TK-10
U-251 = tested on: U-251
UACC-257 = tested on: UACC-257
UACC-62 = tested on: UACC-62
UO-31 = tested on: UO-31
XF498 = tested on: XF498
DLD-1 = tested on: DLD-1
HOP-92 = tested on: HOP-92
RPMI-8226 = tested on: RPMI-8226

In the case of `CCOP(=O)(C/C(=N/NC(C)(C)C)C(=O)Nc1nc2ccc(C)cc2s1)OCC`, the GI50 (786-0) is reported as > 100 µM (inactive), the GI50 (A498) is reported as > 100 µM (inactive) and the GI50 (A549) is reported as > 100 µM (inactive). The GI50 (ACHN) was > 100 µM (inactive), the GI50 (CAKI-1) was > 100 µM (inactive) and the GI50 (CCRF-CEM) was > 100 µM (inactive). The GI50 (COLO 205) was > 100 µM (inactive), the GI50 (DMS-114) was > 100 µM (inactive) and the GI50 (DMS-273) was > 100 µM (inactive). For the same compound, the GI50 (EKVX) was > 100 µM (inactive), the GI50 (HCC 2998) was > 100 µM (inactive) and the GI50 (HCT-116) was > 100 µM (inactive). The GI50 (HCT-15) was > 100 µM, the GI50 (HL-60) was > 100 µM (inactive) and the GI50 (HOP-18) was > 100 µM (inactive). For the same compound, the GI50 (HOP-62) was > 100 µM (inactive), the GI50 (HT-29) was > 100 µM (inactive) and the GI50 (IGROV-1) was > 100 µM (inactive). For the same compound, the GI50 (K562) was > 100 µM (inactive), the GI50 (KM-20L2) was > 100 µM (inactive) and the GI50 (KM12) was > 100 µM (inactive). For the same compound, the GI50 (LOX IMVI) was > 100 µM (inactive), the GI50 (LXFL 529) was > 100 µM (inactive) and the GI50 (M14) was > 100 µM (inactive). The GI50 (M19-MEL) was > 100 µM (inactive), the GI50 (MOLT-4) was > 100 µM (inactive) and the GI50 (Malme-3M) was > 100 µM (inactive). The GI50 (NCI-H226) was > 100 µM (inactive), the GI50 (NCI-H23) was > 100 µM (inactive) and the GI50 (NCI-H460) was > 100 µM (inactive). The GI50 (NCI-H522) was > 100 µM (inactive), the GI50 (OVCAR-3) was > 100 µM (inactive) and the GI50 (OVCAR-4) was > 100 µM (inactive). For the same compound, the GI50 (OVCAR-5) was > 100 µM (inactive), the GI50 (OVCAR-8) was > 100 µM (inactive) and the GI50 (RXF 393) was > 100 µM (inactive). The GI50 (RXF 631) was > 100 µM (inactive), the GI50 (SF-268) was > 100 µM (inactive) and the GI50 (SF-295) was > 100 µM (inactive). For the same compound, the GI50 (SF-539) was > 100 µM (inactive), the GI50 (SK-MEL-28) was > 100 µM (inactive) and the GI50 (SK-MEL-2) was > 100 µM (inactive). The GI50 (SK-MEL-5) was > 100 µM (inactive), the GI50 (SK-OV-3) was > 100 µM (inactive) and the GI50 (SN12C) was > 100 µM (inactive). For the same compound, the GI50 (SNB-19) was > 100 µM (inactive), the GI50 (SNB-75) was > 100 µM (inactive) and the GI50 (SNB-78) was > 100 µM (inactive). The GI50 (SR) was > 100 µM (inactive), the GI50 (SW-620) was > 100 µM (inactive) and the GI50 (TK-10) was > 100 µM (inactive). For the same compound, the GI50 (U-251) was > 100 µM (inactive), the GI50 (UACC-257) was > 100 µM (inactive) and the GI50 (UACC-62) was > 100 µM (inactive). The GI50 (UO-31) was > 100 µM (inactive) and the GI50 (XF498) was > 100 µM (inactive).
For `COC(=O)/C=C/C1C(C(=O)OC)C2(C(=O)OC)CCC1(C(=O)OC)N2` (stereo not drawn), the GI50 (786-0) was > 100 µM (inactive), the GI50 (A498) was > 100 µM (inactive) and the GI50 (A549) was > 100 µM (inactive). The GI50 (ACHN) was > 100 µM (inactive), the GI50 (CAKI-1) was > 100 µM (inactive) and the GI50 (CCRF-CEM) was > 100 µM (inactive). For the same compound, the GI50 (COLO 205) was > 100 µM (inactive), the GI50 (DLD-1) was > 100 µM (inactive) and the GI50 (DMS-273) was > 100 µM (inactive). For the same compound, the GI50 (EKVX) was > 100 µM (inactive), the GI50 (HCC 2998) was > 100 µM (inactive) and the GI50 (HCT-116) was > 100 µM (inactive). For the same compound, the GI50 (HCT-15) was > 100 µM, the GI50 (HL-60) was > 100 µM (inactive) and the GI50 (HOP-18) was 96.8 µM (inactive). The GI50 (HOP-62) was > 100 µM (inactive), the GI50 (HOP-92) was > 100 µM (inactive) and the GI50 (HT-29) was > 100 µM (inactive). The GI50 (IGROV-1) was > 100 µM (inactive), the GI50 (K562) was > 100 µM (inactive) and the GI50 (KM-20L2) was > 100 µM (inactive). The GI50 (KM12) was > 100 µM (inactive), the GI50 (LOX IMVI) was > 100 µM (inactive) and the GI50 (LXFL 529) was > 100 µM (inactive). For the same compound, the GI50 (M14) was > 100 µM (inactive), the GI50 (M19-MEL) was > 100 µM (inactive) and the GI50 (MOLT-4) was > 100 µM (inactive). For the same compound, the GI50 (Malme-3M) was > 100 µM (inactive), the GI50 (NCI-H226) was > 100 µM (inactive) and the GI50 (NCI-H23) was > 100 µM (inactive). For the same compound, the GI50 (NCI-H460) was > 100 µM (inactive), the GI50 (NCI-H522) was > 100 µM (inactive) and the GI50 (OVCAR-3) was > 100 µM (inactive). The GI50 (OVCAR-4) was > 100 µM (inactive), the GI50 (OVCAR-5) was > 100 µM (inactive) and the GI50 (OVCAR-8) was > 100 µM (inactive). For the same compound, the GI50 (RPMI-8226) was > 100 µM (inactive), the GI50 (RXF 393) was > 100 µM (inactive) and the GI50 (RXF 631) was > 100 µM (inactive). For the same compound, the GI50 (SF-268) was > 100 µM (inactive), the GI50 (SF-295) was > 100 µM (inactive) and the GI50 (SF-539) was > 100 µM (inactive). For the same compound, the GI50 (SK-MEL-2) was > 100 µM (inactive), the GI50 (SK-MEL-5) was > 100 µM (inactive) and the GI50 (SK-OV-3) was > 100 µM (inactive). For the same compound, the GI50 (SN12C) was > 100 µM (inactive), the GI50 (SNB-19) was > 100 µM (inactive) and the GI50 (SNB-75) was > 100 µM (inactive). For the same compound, the GI50 (SNB-78) was > 100 µM (inactive), the GI50 (SR) was > 100 µM (inactive) and the GI50 (SW-620) was > 100 µM (inactive). The GI50 (TK-10) was > 100 µM (inactive), the GI50 (U-251) was > 100 µM (inactive) and the GI50 (UACC-257) was > 100 µM (inactive). For the same compound, the GI50 (UACC-62) was > 100 µM (inactive), the GI50 (UO-31) was > 100 µM (inactive) and the GI50 (XF498) was > 100 µM (inactive).
With `Nc1ncn([C@@H]2C=C(CO)C(O)C2O)c(=O)n1` (stereo partly drawn) the GI50 (786-0) was 55.5 µM (inactive), the GI50 (A498) was > 100 µM (inactive) and the GI50 (A549) was 66.5 µM (inactive). For the same compound, the GI50 (ACHN) was 51.4 µM (inactive), the GI50 (CAKI-1) was 98.4 µM (inactive) and the GI50 (CCRF-CEM) was 45.5 µM (inactive). For the same compound, the GI50 (COLO 205) was 37.8 µM (inactive), the GI50 (DLD-1) was 58.2 µM (inactive) and the GI50 (DMS-273) was > 100 µM (inactive). For the same compound, the GI50 (EKVX) was > 100 µM (inactive), the GI50 (HCC 2998) was 56.2 µM (inactive) and the GI50 (HCT-116) was 39.2 µM (inactive). The GI50 (HCT-15) was 60.3 µM, the GI50 (HL-60) was 39.5 µM (inactive) and the GI50 (HOP-18) was > 100 µM (inactive). For the same compound, the GI50 (HOP-62) was 53.7 µM (inactive), the GI50 (HOP-92) was > 100 µM (inactive) and the GI50 (HT-29) was 57.4 µM (inactive). For the same compound, the GI50 (IGROV-1) was 70.1 µM (inactive), the GI50 (K562) was 43.6 µM (inactive) and the GI50 (KM-20L2) was 63.8 µM (inactive). The GI50 (KM12) was 85.3 µM (inactive), the GI50 (LOX IMVI) was 44.4 µM (inactive) and the GI50 (LXFL 529) was 75 µM (inactive). The GI50 (M14) was 60.1 µM (inactive), the GI50 (M19-MEL) was > 100 µM (inactive) and the GI50 (MOLT-4) was 56.5 µM (inactive). For the same compound, the GI50 (Malme-3M) was > 100 µM (inactive), the GI50 (NCI-H226) was 95.1 µM (inactive) and the GI50 (NCI-H23) was > 100 µM (inactive). For the same compound, the GI50 (NCI-H460) was 28.6 µM (inactive), the GI50 (NCI-H522) was > 100 µM (inactive) and the GI50 (OVCAR-3) was > 100 µM (inactive). The GI50 (OVCAR-4) was > 100 µM (inactive), the GI50 (OVCAR-5) was > 100 µM (inactive) and the GI50 (OVCAR-8) was 79.3 µM (inactive). The GI50 (RPMI-8226) was 37.7 µM (inactive), the GI50 (RXF 631) was > 100 µM (inactive) and the GI50 (SF-268) was > 100 µM (inactive). The GI50 (SF-295) was > 100 µM (inactive), the GI50 (SF-539) was > 100 µM (inactive) and the GI50 (SK-MEL-28) was > 100 µM (inactive). The GI50 (SK-MEL-2) was > 100 µM (inactive), the GI50 (SK-MEL-5) was > 100 µM (inactive) and the GI50 (SK-OV-3) was > 100 µM (inactive). For the same compound, the GI50 (SN12C) was > 100 µM (inactive), the GI50 (SNB-19) was > 100 µM (inactive) and the GI50 (SNB-78) was 61.5 µM (inactive). For the same compound, the GI50 (SW-620) was 69.8 µM (inactive), the GI50 (TK-10) was > 100 µM (inactive) and the GI50 (U-251) was > 100 µM (inactive). The GI50 (UACC-257) was > 100 µM (inactive), the GI50 (UACC-62) was 83.9 µM (inactive) and the GI50 (UO-31) was 50.7 µM (inactive). The GI50 (XF498) was > 100 µM (inactive).
